Key:
Normal Rats = experiment: Hypoglycemic activity of bitter melon extracts in normal rats (blood glucose after oral glucose challenge); assay type: in vivo, Wistar Albino male rats; details: for hypoglycemia in normal animals (glucose <70 mg/dL in this model): 50 mg/kg
Experimental: (§1) This and related experiments subsequently were published (Clouatre et al., 2011.) Wistar Albino male rats 12 weeks of age were obtained from St John's Pharmacy College Animal House, India and handled according to institutional practices. […] All rats were fed a standard rat chow diet ad libitum from Sai Durga Feed, Bangalore; water also was supplied ad libitum. Following 7 days acclimatization, one half of the rats were fasted for 24 hours and then injected with freshly prepared STZ in citrate buffer [[…]] (45 mg/kg, i.p). After one week, rats with marked hyperglycemia (fasting blood glucose >300 mg/dL) were used as the diabetic rats.
(§2) Extracts 1-4 were produced and preserved via different methods attempting to retain efficacies reported for macerated fresh fruit preparations. EX-1 was a vacuum-dried powder of the macerated extract of fresh fruit (˜25:1). EX-2 was a freeze-dried powder of the macerated extract of fresh fruit (˜25:1). EX-3 was a spray-dried powder of the macerated extract of fresh fruit (˜25:1). EX-4 was a vacuum-dried powder of the macerated extract of fresh fruit adsorbed onto powdered vacuum-dried fresh fruit (˜15:1). Dosages of the extracts (mg/kg bodyweight/day) were 50 and 250 mg/kg as indicated. After an overnight fast, the extract samples suspended in 5% gum acacia were administered to the animals by gastric intubations with a syringe.
(§3) For test purposes, glucose was given orally by intubation as a 40% solution (1 g/kg body wt). Blood samples following the glucose challenge were collected for the measurement of blood glucose from the tail vein at 0, 1, 2, 3 and 4 hrs. The blood glucose level was determined by using an electronic glucometer (Accu Check, Roche Diagnostic).
First, the hypoglycemic activity of bitter melon extracts was studied in normal rats.

[1] = system: streptozotocin-induced diabetic rats; experiment: Anti-hyperglycemic activity of bitter melon extracts in streptozotocin-induced diabetic rats (blood glucose); assay type: in vivo, Wistar Albino male rats; details: extracts 250 mg/kg, metformin 150 mg/kg
Experimental: as §1, §2, §3
Next, the anti-hyperglycemic activity of bitter melon extracts was studied in streptozotocin-induced diabetic rats described above.

## CN(C)C(=N)N=C(N)N [Metformin, metformin]
Normal Rats
  hypoglycemia in normal animals (glucose <70 mg/dL in this model): resulted in hypoglycemia
Normal Rats; 50 mg/kg oral, +1 hr
  Blood Glucose Level, Treatment +1 hr: 85.5 ± 1.8 mg %
Normal Rats; 50 mg/kg oral, +2 hr
  Blood Glucose Level, Treatment +2 hr: 73.5 ± 1.2 mg %
  percent reduction in blood sugar level compared with initial glucose value (0 h): (34.9) percent
Normal Rats; 50 mg/kg oral, +3 hr
  Blood Glucose Level, Treatment +3 hr: 66.5 ± 1.2 mg %
  percent reduction in blood sugar level compared with initial glucose value (0 h): (46.4) percent
Normal Rats; 50 mg/kg oral, +4 hr
  Blood Glucose Level, Treatment +4 hr: 52.5 ± 0.7 mg %
  percent reduction in blood sugar level compared with initial glucose value (0 h): (53.5) percent
Normal Rats; 50 mg/kg oral, initial value 0 hr
  Blood Glucose Level, Initial (0 hr): 93.3 ± 1.3 mg %
Normal Rats; listed as metformin
  hypoglycemia in normal animals (glucose <70 mg/dL in this model): led to hypoglycemia
[1]; diabetic animals, at 4 hours
  reduced blood glucose, percent: 53.52 percent (mg %)
[1]; diabetic rats, +1 hr
  Blood Glucose Level, Treatment +1 hr: 271.6 ± 4.0 mg %
[1]; diabetic rats, +2 hr
  Blood Glucose Level, Treatment +2 hr: 214.4 ± 3.2 mg %
  percent reduction of blood sugar level compared with initial level of blood glucose (0 h): (34.9) percent
[1]; diabetic rats, +3 hr
  Blood Glucose Level, Treatment +3 hr: 176.0 ± 6.7 mg %
  percent reduction of blood sugar level compared with initial level of blood glucose (0 h): (46.4) percent
[1]; diabetic rats, +4 hr
  Blood Glucose Level, Treatment +4 hr: 153.0 ± 3.3 mg %
  percent reduction of blood sugar level compared with initial level of blood glucose (0 h): (53.5) percent
[1]; diabetic rats, initial value 0 hr
  Blood Glucose Level, Initial (0 hr): 329.2 ± 5.3 mg %

Reference: US10006079B2, “Method for establishing the anti-diabetic potential of bitter melon” (Glykon Technologies Group, LLC, priority 2013, dated 2018)
